Measured values published in patent US20230137943A1, “PHOTOPROXIMITY PROFILING OF PROTEIN-PROTEIN INTERACTIONS IN CELLS” (The University of Chicago, priority 2019, published 2023).

Target: T1, SNAP-FLAG/α-FLAG antibody complex (Homo sapiens, UniProt P16455, A127T/A154D/C150Q/C62A/E30R/G131K/G132T/G153L/K125A/K32I/L33F/M134L/N157G/Q115S/Q116H/R128A/R135S/S151G/S152D/S159E)
T1 construct: host or cells: clarified lysate of HEK293T cells transiently or stably expressing SnapFlag
T1 sequence (P16455 1-182 E30R/K32I/L33F/C62A/Q115S/Q116H/K125A/A127T/R128A/G131K/G132T/M134L/R135S/C150Q/S151G/S152D/G153L/A154D/N157G/S159E limits assumed): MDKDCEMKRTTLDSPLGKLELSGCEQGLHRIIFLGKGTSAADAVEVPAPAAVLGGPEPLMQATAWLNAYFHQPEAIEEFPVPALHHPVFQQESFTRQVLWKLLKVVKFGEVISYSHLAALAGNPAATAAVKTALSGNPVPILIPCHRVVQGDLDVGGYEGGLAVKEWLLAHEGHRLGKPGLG
Experiment: Proximity-labeling assay in cell lysate (anti-biotin / anti-mouse Western blot)
Type: biochemical
Conditions: 500 nM probe; for Proximal labeling of heavy and light chains upon irradiation: 365 nm light 10 minutes (FIG. 4C, FIG. 12B)
Description: Proximity-labeling assays: Clarified cell lysate from HEK293T cells either transiently (see FIG. 4B) or stably (see FIG. 4C) expressing SNAP-Tag (NEB #N9183S; New England Biolabs, Ipswich, Mass., United States of America) or SnapFlag was normalized to 1 mg/mL and 250 μL aliquots incubated in a microcentrifuge tube with either 500 nM of PP1. PP2, or DMSO for 1 hour at 37° C. Washed anti-FLAG M2 affinity gel, 40 μL of a 50% slurry, was transferred to each reaction in 750 μL of DPBS and the resultant suspension left to rotate overnight at 4° C. (Sigma #A2220; Sigma-Aldrich, St. Louis, Mo., United States of America). Samples were then spun down at 4000×g, supernatant aspirated, and the resin washed with 1M urea in DPBS (1 mL×8) followed by DPBS (1 mL). After being resuspended in 100 μL of DPBS, the samples were placed on ice where they were irradiated with 365 nm light for 10 minutes (SPECTROLINKER™ XL-1500a UV crosslinker, Spectronics Corporation, Westbury, N.Y., United States of America). Once irradiated, the beads were washed with 100 mM pH 3.5 glycine buffer (100 μL×2) and DPBS (1 mL). To elute the remaining SNAP-FLAG and resin-bound FLAG-antibody the beads were boiled for 5 minutes at 95° C. in 20 μL 4×-loading buffer containing 8% SDS and 400 mM DTT. After which, 60 μL of DPBS was added and the suspension boiled at 95° C. for an additional 5 minutes. The samples were then run on SDS-PAGE gel and transferred to nitrocellulose where they were stained with anti-mouse IR dye (Li-cor #926-68072; Li-cor Biosciences, Lincoln, Nebr., United States of America) and streptavidin IR dye (Li-cor #926-32230; Li-cor Biosciences, Lincoln, Nebr., United States of America). Bands corresponding to biotinylated proteins and the FLAG antibody were visualized using an Odyssey infrared imager (Li-cor Biosciences, Lincoln, Nebr., United States of America).
To study if proximal protein interactors could be labeled in response to the dual photoactivation of PP1 in vitro, the interaction between SNAP-FLAG protein and an α-FLAG monoclonal antibody (mAb) was examined in cell lysate. In this assay, proximal biotinylation of both heavy and light chains of the antibody was expected, as well as self-labeling of the SNAP-FLAG protein, under conditions where the protein complex is formed and the PP1 probe is photoactivated. To test this hypothesis in the presence and absence of the protein-protein complex, SNAP protein that contained or lacked the FLAG epitope was treated with PP1 probe, followed by incubation with α-FLAG mAb, bead-based pulldown of the complexes, and subsequent photoactivation. […] The requirement for photoactivation of PP1, as well as a related probe PP2 (see FIG. 6) was tested by forming the SNAP-FLAG/α-FLAG complexes, and then comparing protein biotinylation with or without irradiation.
To study if proximal protein interactors could be labeled in response to the dual photoactivation of AC1 (see FIG. 12A) in vitro, the interaction between SNAP-FLAG protein and an α-FLAG monoclonal antibody (mAb) was examined in cell lysate. Briefly, 250 μL aliquots of cell lysate (HEK293T, SNAP-Flag) was incubated in a microcentrifuge tube with either 500 nM of photoprobe, or DMSO for 1 hour at 37° C. Washed anti-FLAG M2 affinity gel, 40 μL of a 50% slurry, was transferred to each reaction in 750 μL of DPBS and the resultant suspension left to rotate overnight at 4° C. (Sigma #A2220; Sigma-Aldrich, St. Louis, Mo., United States of America). Samples were then spun down at 4000×g, supernatant aspirated, and the resin washed with 1M urea in DPBS (1 mL×8) followed by DPBS (1 mL). After being resuspended in 250 μL of DPBS, the +UV samples were placed on ice where they were irradiated with 365 nm light for 10 minutes (SPECTROLINKER™ XL-1500a UV crosslinker, Spectronics Corporation, Westbury, N.Y., United States of America). Once irradiated, the beads were washed with 1 M Urea (1 mL×2) and DPBS (1 mL×2). […]

| Biotinylation with SNAP protein that lacked the FLAG sequence (no FLAG epitope, 365 nm 10 minutes (FIG. 4B)) | Proximal labeling of heavy/light chain without irradiation (not exposed to 365 nm light (FIG. 4C)) | SMILES | Proximal labeling of heavy and light chains upon irradiation | Biotinylation of α-FLAG antibody chains with SNAP-FLAG protein (FLAG epitope present, 365 nm 10 minutes (FIG. 4B)) |
| --- | --- | --- | --- | --- |
|  |  | COc1cc(COC(=O)NC(CCCCNC(=O)CCC2(C)N=N2)C(=O)NCCCCC2SCC3NC(=O)NC32)c([N+](=O)[O-])cc1OCCCC(=O)NCc1ccc(COc2nc(N)nc3[nH]cnc23)cc1 (centres unmarked) [AC1] | labels a proximal protein binding partner |  |
| no protein-biotinylation | No proximal labeling | COc1cc(C(C)OC(=O)NC(CCCCNC(=O)CCC2(C)N=N2)C(=O)NCCCCCNC(=O)CCCCC2SCC3NC(=O)NC32)c([N+](=O)[O-])cc1OCCCC(=O)NCc1ccc(COc2nc(N)nc3[nH]cnc23)cc1 (centres unmarked) [PP1] | a discrete biotinylated band was formed on both heavy and light chains | robust biotinylation of both heavy and light chain fragments |
